Measurements taken from ChEMBL document CHEMBL1201862, “PubChem BioAssay data set” (2004).
Active and inactive are the calls of the source.

Columns and labels:
[1] = target: T1, Insulin-degrading enzyme (Homo sapiens, UniProt P14735); assay: cellular IDE activation of Abeta substrate cleavage – fluorescence polarization, HEK cells, dose response (AID 588439); assay type: functional, cell-based
T1 sequence (P14735 whole entry): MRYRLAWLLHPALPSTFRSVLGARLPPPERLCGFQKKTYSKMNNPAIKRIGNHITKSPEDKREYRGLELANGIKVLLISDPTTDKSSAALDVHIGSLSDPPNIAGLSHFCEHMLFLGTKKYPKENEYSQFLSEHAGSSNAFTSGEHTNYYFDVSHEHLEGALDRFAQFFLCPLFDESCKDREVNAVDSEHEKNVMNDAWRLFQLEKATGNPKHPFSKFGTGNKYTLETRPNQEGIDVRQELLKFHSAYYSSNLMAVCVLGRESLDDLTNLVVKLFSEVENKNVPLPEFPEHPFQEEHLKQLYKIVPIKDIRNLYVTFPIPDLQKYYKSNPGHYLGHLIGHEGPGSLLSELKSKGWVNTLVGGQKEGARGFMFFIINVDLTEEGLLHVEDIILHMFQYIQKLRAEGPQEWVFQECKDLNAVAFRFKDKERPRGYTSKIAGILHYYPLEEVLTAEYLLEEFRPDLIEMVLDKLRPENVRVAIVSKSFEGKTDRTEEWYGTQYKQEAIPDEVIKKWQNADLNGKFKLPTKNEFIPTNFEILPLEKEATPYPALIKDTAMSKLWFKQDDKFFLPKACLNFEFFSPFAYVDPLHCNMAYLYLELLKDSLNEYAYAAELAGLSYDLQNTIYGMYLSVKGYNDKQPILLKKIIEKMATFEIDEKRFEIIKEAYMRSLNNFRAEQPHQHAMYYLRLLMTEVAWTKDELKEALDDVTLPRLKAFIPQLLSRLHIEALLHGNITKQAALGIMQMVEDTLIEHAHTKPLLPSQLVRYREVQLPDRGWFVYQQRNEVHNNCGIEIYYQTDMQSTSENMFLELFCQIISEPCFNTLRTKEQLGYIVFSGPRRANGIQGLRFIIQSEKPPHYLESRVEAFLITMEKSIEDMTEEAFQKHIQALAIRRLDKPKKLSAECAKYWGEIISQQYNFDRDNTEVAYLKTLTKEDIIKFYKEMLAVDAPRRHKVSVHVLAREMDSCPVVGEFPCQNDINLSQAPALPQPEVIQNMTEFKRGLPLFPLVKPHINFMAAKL

[2] = test system: HEK293; assay: membrane integrity loss in HEK cells – cell-based, fluorescence, cytotoxicity control for IDE activator project, dose response (AID 588440); assay type: functional; conditions: Homo sapiens;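 also: cytotoxicity by LDH release measuring loss of membrane integrity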
[3] = target: Dual specificity tyrosine-phosphorylation-regulated kinase 1A (Rattus norvegicus, UniProt Q63470); assay type: biochemical, Homo sapiens
[4] = target: T2, Histone-lysine N-methyltransferase NSD2 (Homo sapiens, UniProt O96028); assay type: biochemical
T2 sequence (O96028 whole entry): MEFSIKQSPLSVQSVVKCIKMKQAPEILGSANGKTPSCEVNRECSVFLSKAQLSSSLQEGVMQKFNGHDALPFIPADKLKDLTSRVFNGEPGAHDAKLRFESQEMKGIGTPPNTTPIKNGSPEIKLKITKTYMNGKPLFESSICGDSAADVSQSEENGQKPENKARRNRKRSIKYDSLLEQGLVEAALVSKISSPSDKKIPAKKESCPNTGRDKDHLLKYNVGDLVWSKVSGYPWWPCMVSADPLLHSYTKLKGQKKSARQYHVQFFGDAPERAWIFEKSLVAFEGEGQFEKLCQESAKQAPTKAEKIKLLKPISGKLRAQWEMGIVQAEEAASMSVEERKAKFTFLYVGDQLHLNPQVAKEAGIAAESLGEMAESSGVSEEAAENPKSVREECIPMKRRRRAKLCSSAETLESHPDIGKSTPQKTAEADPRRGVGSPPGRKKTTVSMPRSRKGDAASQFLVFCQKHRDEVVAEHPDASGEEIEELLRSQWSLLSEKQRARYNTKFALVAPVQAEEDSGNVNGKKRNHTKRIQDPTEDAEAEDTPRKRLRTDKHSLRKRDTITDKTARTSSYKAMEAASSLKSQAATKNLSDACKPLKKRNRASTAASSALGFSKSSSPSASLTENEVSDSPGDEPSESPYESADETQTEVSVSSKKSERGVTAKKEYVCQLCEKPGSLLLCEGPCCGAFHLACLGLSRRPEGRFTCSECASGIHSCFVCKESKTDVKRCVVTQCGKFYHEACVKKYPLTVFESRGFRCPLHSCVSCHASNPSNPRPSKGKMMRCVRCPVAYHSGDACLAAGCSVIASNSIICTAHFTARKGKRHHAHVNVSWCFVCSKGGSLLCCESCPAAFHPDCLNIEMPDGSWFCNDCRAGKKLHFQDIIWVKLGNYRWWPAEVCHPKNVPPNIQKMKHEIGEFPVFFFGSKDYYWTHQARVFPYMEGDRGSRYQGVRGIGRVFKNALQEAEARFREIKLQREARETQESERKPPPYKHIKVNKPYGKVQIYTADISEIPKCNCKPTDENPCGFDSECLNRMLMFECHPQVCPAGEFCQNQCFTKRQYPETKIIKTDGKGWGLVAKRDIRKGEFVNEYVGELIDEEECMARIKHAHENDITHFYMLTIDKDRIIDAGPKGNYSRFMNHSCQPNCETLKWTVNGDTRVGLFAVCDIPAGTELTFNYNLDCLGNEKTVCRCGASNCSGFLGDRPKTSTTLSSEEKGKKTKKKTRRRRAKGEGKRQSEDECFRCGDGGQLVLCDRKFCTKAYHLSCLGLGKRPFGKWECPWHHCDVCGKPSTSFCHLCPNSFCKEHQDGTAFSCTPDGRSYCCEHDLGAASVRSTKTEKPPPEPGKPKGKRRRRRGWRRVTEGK

[5] = NIH-3T3 fibroblast cytotoxicity, dose response, cytotoxicity control, cell-based, fluorescence, Alamar Blue, secondary assay (AID 2327); assay type: functional;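 also: NIH-3T3 mouse fibroblasts cultured with fluconazole at 8 µg/mL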
[6] = luciferase reporter signal suppression in cells – H4 neuroglioma cells, luminescence, dose response (AID 1990); assay type: functional, cell-based
[7] = cells; assay type: functional, cell-based
[8] = alpha-synuclein stem-loop luciferase translation blockers – H4 neuroglioma cells, luminescence, confirmation (AID 1988); assay type: functional, cell-based
[9] = HEK-293T viability loss after treatment – luminescence, T-cell screen hits, cytotoxicity control for TCR NF-kB inhibitor project, dose response (AID 489026); assay type: functional, cell-based;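 also: cells exposed to compound about 14 hours before the viability readout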
[10] = Counterscreen for AddAB inhibitors: absorbance-based bacterial cell-based high throughput dose response assay for inhibitors of bacterial viability. [Related pubchem assays (depositor defined):AID435030, AID449728, AID449731, AID488942, AID488955, AID488956]; assay type: functional
[11] = target: Phospholipase A2 (Homo sapiens, UniProt P04054); assay type: functional;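 also: confirmatory dose-response counterscreen on phospholipase A2, testing hits that came from an ultra-high-throughput screen for ATG4B inhibitors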
Chain of Phospholipase A2 (P04054 whole entry): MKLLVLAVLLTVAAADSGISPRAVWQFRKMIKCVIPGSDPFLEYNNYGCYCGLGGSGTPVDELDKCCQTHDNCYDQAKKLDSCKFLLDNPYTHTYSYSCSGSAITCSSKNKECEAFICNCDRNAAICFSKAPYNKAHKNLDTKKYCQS

[12] = test system: INS1; assay: INS-1E survival protection against cytokine death – cell-based, luminescence, retest, dose response (AID 449756); assay type: functional; conditions: Rattus norvegicus;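 also: cell death triggered by IL-1 beta plus TNF-alpha plus IFN-gamma mixture; protective hits raise ATP signal compared with cytokine alone wells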
[13] = general mammalian cell viability loss – inhibitor set, cherry-pick, set 2, cytotoxicity control for miR-122 modulator project, dose response (AID 720697); assay type: functional, cell-based

SMILES | EC50 [1] | IC50 [2] | AC50 [3] | AC50 [4] | EC50 [5] | EC50 [6] | EC50 [7] | EC50 [8] | IC50 [9] | IC50 [10] | IC50 [11] | AC50 [12] | AC50 [13]
O=C1CCN2C=Nc3cccc4ccc1c2c34 | > 54.7 µM (inactive) | > 89.2 µM (inactive) | 3 µM (active) | 9.91 µM (active) |  |  |  |  |  |  |  |  | 
Oc1ccc2ccccc2c1/C=N/Nc1nnc(-c2ncc[nH]2)c2ccccc12 |  |  |  |  | 11.4 µM (active) | 0.178 µM (active) | 82.8 µM (active) | 0.224 µM (active) | > 80 µM (inactive) | > 119 µM (inactive) | 1.51 µM (active) | 0.424 µM (active) | 2.19 µM (active)
